Structures can show the parent of a compound that is named as a salt.
Tested on: Pseudomonas aeruginosa PAM1001
Test: microbe, parasite or virus in culture
Format: cell-based
Settings: for inhibition at 20 µg/mL / inhibition at 40 µg/mL / inhibition at 2.5 µg/mL / inhibition at 5 µg/mL / inhibition at 10 µg/mL: Pseudomonas aeruginosa, PAM1001, read-out: Inhibition (%) of growth of P. aeruginosa PAM1001; for Inhibition (%) of growth of P. aeruginosa PAM1001: Levofloxacin 0.25 μg/mL
Procedure: For compounds labeled with the prefix ‘D’, potentiation is measured by inhibition of growth of Pseudomonas aeruginosa PAM1001 at varying concentrations of efflux pump inhibitors (EPIs) in the presence of levofloxacin (0.25 microg/mL). Bacteria are grown in Mueller Hinton Broth (MHB, Difco) with an initial inoculum of 1×10^6 CFU/mL. Kinetics of bacterial growth is monitored, during 18 h of incubation at 37° C., by measurement of the culture absorbance at 650 nm using a 96-well plate spectrophotometer (SpectraMax, Molecular Devices). The inhibitory effect of EPIs is expressed as a percentage of growth inhibition compared to a control bacterial culture grown in the presence of 0.25 microg/mL levofloxacin but without EPIs.

[1] = Concentration of Compound 2.5 μg/mL
[2] = Concentration of Compound 5 μg/mL
[3] = Concentration of Compound 10 μg/mL
[4] = Concentration of Compound 20 μg/mL
[5] = Concentration of Compound 40 μg/mL

| Compound | inhibition at 20 µg/mL [%] | inhibition at 40 µg/mL [%] | inhibition at 2.5 µg/mL [%] | inhibition at 5 µg/mL [%] | inhibition at 10 µg/mL [%] | Inhibition (%) of growth of P. aeruginosa PAM1001 [1] [%] | Inhibition (%) of growth of P. aeruginosa PAM1001 [2] [%] | Inhibition (%) of growth of P. aeruginosa PAM1001 [3] [%] | Inhibition (%) of growth of P. aeruginosa PAM1001 [4] [%] | Inhibition (%) of growth of P. aeruginosa PAM1001 [5] [%] |
| --- | --- | --- | --- | --- | --- | --- | --- | --- | --- | --- |
| N[C@H]1CN[C@H](C(=O)N2C[C@H](NC(=O)[C@H](O)CCc3ccccc3)C[C@H]2C(=O)Nc2cnc3ccccc3c2)C1 (mixture of isomers) [Compound D101, trans-4-Amino-L-Prolyl-trans-4-((R)-2-Hydroxy-4-Phenylbutyrylamino)-L-Proline 3-Quinolylamide Trihydrochloride] | 20 | 94 | – | – | – | – | – | – | – | – |
| N[C@@H]1CCN[C@H](C(=O)N2C[C@H](NC(=O)[C@H](O)CCc3ccccc3)C[C@H]2C(=O)Nc2cnc3ccccc3c2)C1 (mixture of isomers) [Compound D113, cis-4-Amino-L-Pipecolinoyl-trans-4-((R)-2-Hydroxy-4-Phenylbutyrylamino)-L-Proline 3-Quinolylamide Trihydrochloride] | 15 | 100 | 20 | 32 | 15 | – | – | – | – | – |
| NC[C@H]1CN[C@H](C(=O)N2C[C@H](NC(=O)[C@H](O)CCc3ccccc3)C[C@H]2C(=O)Nc2cnc3ccccc3c2)C1 (mixture of isomers) [Compound D109, trans-4-Aminomethyl-L-Prolyl-trans-4-((R)-2-Hydroxy-4-Phenylbutyrylamino)-L-Proline 3-Quinolylamide Trihydrochloride] | 100 | 100 | 17 | 21 | 98 | – | – | – | – | – |
| NCC(=O)N[C@@H]1CN[C@@H](COc2ccc(-c3ccccc3)cc2)C1 [Compound D503, (2R,4S)-4-Glycylamino-2-(4-Biphenyloxy)methyl-pyrrolidine Dihydrochloride] | 100 | 100 | 22 | 15 | 100 | – | – | – | – | – |
| NCCC[C@@H](N)C(=O)N1C[C@@H](NC(=O)CCCc2ccccc2)C[C@H]1C(=O)Nc1ccc2c(c1)CCC2 [Compound D124, D-Ornithylcis-4-(4-Phenylbutanoyl)amino-L-Proline 5-Indanylamide Dihydrochloride] | 100 | 100 | 19 | 100 | 100 | – | – | – | – | – |
| Cc1c(Cl)cccc1N1CCN(C(=O)[C@H]2C[C@H](NC(=O)[C@@H](O)CN)CN2)CC1 [Compound D402, 1-[trans-4-((2S)-3-Amino-2-Hydroxypropionylamino)-D-Prolyl]-4-(3-Chloro-2-Methylphenyl)piperazine Dihydrochloride] | 100 | 101 | 19 | 71 | 99 | – | – | – | – | – |
| Cc1ccc(NC(=O)[C@@H](CCc2ccccc2)NC(=O)[C@@H]2C[C@@H](NC(=O)CN)CN2)cc1C [Compound D204, trans-4-Glycylamino-L-Prolyl-D-Homophenylalanine 3,4-Dimethylphenylamide Dihydrochloride] | 100 | 100 | 18 | 16 | 3 | – | – | – | – | – |
| CNCC(=O)N1C[C@H](N)C[C@H]1C(=O)N1C[C@H](NC(=O)[C@H](O)CCc2ccccc2)C[C@H]1C(=O)Nc1cnc2ccccc2c1 (mixture of isomers) [Compound D111, 1-(N-Methylglycyl)-trans-4-Amino-L-Prolyl-trans-4-((R)-2-Hydroxy-4-Phenylbutyrylamino)-L-Proline 3-Quinolylamide Trihydrochloride] | 27 | 100 | 20 | 20 | 19 | – | – | – | – | – |
| NCC(=O)N[C@H]1CN[C@H](C(=O)N2CCN(c3cccc(Cl)c3)CC2)C1 [Compound D401, 1-(trans-4-Glycylamino-L-Prolyl)-4-(3-Chlorophenyl)-piperazine Dihydrochloride] | 4 | 96 | 21 | 19 | 15 | – | – | – | – | – |
| trans-4-Glycylamino-L-Prolyl-4-(2-Chloro-5-Methylphenoxy)-piperidine Dihydrochloride [Compound D416] | – | – | – | – | – | 21 | 11 | 87 | 99 | 99 |
| NCC(=O)N[C@H]1CN[C@H](C(=O)N2CCC(Oc3ccc(OCc4ccccc4)cc3)CC2)C1 [Compound D413, 1-(trans-4-Glycylamino-L-Prolyl)4-(4-Benzyloxyphenoxy)piperidine Dihydrochloride] | 100 | 100 | 13 | 8 | 97 | – | – | – | – | – |
| Cl.Cl.Cl.NCC(=O)NC1CNC(C(=O)Nc2cccc(NC(=O)CCc3ccccc3)n2)C1 [Compound D702, 2-(trans-4-Glycylamino-L-Prolylamino)-6-(4-Phenylpropanoylamino)Pyridine Trihydrochloride] | – | – | – | – | – | 19 | 15 | 82 | 100 | 100 |
| NCC(=O)N[C@H]1CN[C@H](C(=O)Nc2ccc(SCc3ccccc3)cc2)C1 [Compound D320, trans-4-Glycylamino-L-Proline 4-Benzylthiophenyl-amide Dihydrochloride] | 100 | 100 | 23 | 21 | 97 | – | – | – | – | – |
| NCC(=O)N[C@@H]1CN[C@@H](C(=O)N2C[C@H](NC(=O)[C@H](O)CCc3ccccc3)C[C@H]2C(=O)Nc2cnc3ccccc3c2)C1 (mixture of isomers) [Compound D105, trans-4-Glycylamino-D-Prolyl-trans-4-((R)-2-Hydroxy-4-Phenylbutyrylamino)-L-proline 3-Quinolylamide Trihydrochloride] | 99 | 101 | 19 | 18 | 50 | – | – | – | – | – |
| Cl.Cl.NCC(=O)N[C@H]1CN[C@H](COc2ccc(-c3ccccc3)cc2)C1 [Compound D501, (2S,4R)-4-Glycylamino-2-(4-Biphenyloxy)-methylpyrrolidine Dihydrochloride] | – | – | – | – | – | 1 | 98 | 100 | 100 | 98 |
| NCC(=O)N[C@H]1CN[C@H](C(=O)N2CCC(Oc3cc(Cl)cc(Cl)c3)CC2)C1 [Compound D414, 1-(trans-4-Glycylamino-L-Prolyl)-4-(3,5-dichlorophenoxy)piperidine Dihydrochloride] | 100 | 100 | 19 | 98 | 100 | – | – | – | – | – |

Reference: US6399629B1, “Efflux pump inhibitors” (priority 1998, dated 2002)
